Experimental data taken from patent US10899732B2, “Substituted benzamides useful as sodium channel blockers” (GENENTECH, INC., priority 2015, dated 2021).
pIC50: −log10 of the molar value.

How the values were obtained:
NaV1.5 = target: T1, NaV1.5 (Homo sapiens, UniProt Q14524); assay: Patch voltage clamp electrophysiology assay (EP), NaV1.5 in HEK-293 cells; format: cell-based; conditions: HEK-293, β1 coexpressed, held at -60 mV (inactivated state)
T1 construct: expression vector containing the full-length cDNA coding for the desired human sodium channel α-subunit; expressed in transfected cells; host or cells: HEK-293
Source text: (§1) Electrophysiological Assay (EP) (In Vitro Assay)
(§2) Patch voltage clamp electrophysiology allows for the direct measurement and quantification of block of voltage-gated sodium channels (NaV's), and allows the determination of the time- and voltage-dependence of block which has been interpreted as differential binding to the resting, open, and inactivated states of the sodium channel (Hille, B., Journal of General Physiology (1977), 69: 497-515).
(§3) The following patch voltage clamp electrophysiology studies were performed on representative compounds of the invention using human embryonic kidney cells (HEK), permanently transfected with an expression vector containing the full-length cDNA coding for the desired human sodium channel α-subunit, grown in culture media containing 10% FBS, 1% PSG, and 0.5 mg/mL G418 at 37° C. with 5% CO2. […] NaV1.7 and NaV1.5 cDNAs (NM_002977 and AC137587; SCN5A, respectively) were stably expressed in HEK-293 cells. The β1 subunit was coexpressed in both the NaV1.7 and NaV1.5 cell lines.
(§4) Sodium currents were measured using the patch clamp technique in the whole-cell configuration using either a PatchXpress automated voltage clamp or manually using an Axopatch 200B (Axon Instruments) or Model 2400 (A-M systems) amplifier. The manual voltage clamp protocol was as follows: Borosilicate glass micropipettes were fire-polished to a tip diameter yielding a resistance of 2-4 Mohms in the working solutions. The pipette was filled with a solution comprised of: 5 mM NaCl, 10 mM CsCl, 120 mM CsF, 0.1 mM CaCl2, 2 mM MgCl2, 10 mM HEPES, 10 mM EGTA; and adjusted to pH 7.2 with CsOH. The external solution had the following composition: 140 mM NaCl, 5 mM KCl, 2 mM CaCl2, 1 mM MgCl2, 10 mM HEPES; and adjusted to pH 7.4 with NaOH. In some studies, the external sodium was reduced by equimolar replacement with choline. Osmolarity in the CsF internal and NaCl external solutions was adjusted to 300 mOsm/kg and 310 mOsm/kg with glucose, respectively. All recordings were performed at ambient temperature in a bath chamber with a volume of 150 μL. Control sodium currents were measured in 0.5% DMSO. Controls and representative compounds of the invention were applied to the recording chamber through a 4-pinch or 8-pinch valve bath perfusion system manufactured by ALA Scientific Instruments.
(§5) Currents were recorded at 40 kHz sampling frequency, filtered at […], and stored using a Digidata-1322A analogue/digital interface with the pClamp software (Axon Instruments). Series resistance compensation was applied (60-80%). […] All statistics in this study are given as mean±SD.
(§6) The membrane potential was maintained at a voltage where inactivation of the channel is complete (which was −60 mV for both NaV1.7 and NaV1.5). The voltage is then stepped back to a very negative (Vhold=[…]) voltage for 20 ms and then a test pulse is applied to quantify the compound block. The 20 ms brief repolarization was long enough for compound-free channels to completely recover from fast inactivation, but the compound-bound channels recovered more slowly such that negligible recovery could occur during this interval. The percent decrease in sodium current following wash-on of compound was taken as the percent block of sodium channels.

NaV1.7 = target: T2, NaV1.7 (Homo sapiens, UniProt Q15858); assay: Patch voltage clamp electrophysiology assay (EP), NaV1.7 in HEK-293 cells; format: cell-based; conditions: HEK-293, β1 coexpressed, held at -60 mV (inactivated state)
T2 construct: expression vector containing the full-length cDNA coding for the desired human sodium channel α-subunit; expressed in transfected cells; host or cells: HEK-293
Source text: as §1, §2, §3, §4, §5, §6

hNav1.7 = target: T3, hNav1.7 (Homo sapiens, UniProt Q15858); assay: Tritiated sulfonamide competitive binding to membranes from cells expressing hNav1.7 and the β1 subunit (LBA); conditions: competition with 100 pM [3H]compound, 18 h, room temperature; read-out: Nav1.7 (LBA)
T3 construct: expressed in transfected cells
Method: Tritiated Sulfonamide Binding to Membranes Isolated from Cells that Heterologously Express hNav1.7 and the β1 Subunit
Preparation of membranes containing recombinantly expressed sodium channels: Frozen recombinant cell pellets were thawed on ice and diluted to 4 times the cell pellet weight with ice cold 50 mM Tris HCl, pH 7.4 buffer. The cell suspensions were homogenized on ice using a motorized glass dounce homogenizer. Homogenates were further diluted 8.4 times with ice cold 50 mM Tris HCl, pH 7.4 buffer and then centrifuged at 200×g at 4° C. for 15 min. The supernatants were collected and centrifuged at 10000×g at 4° C. for 50 min. The pellets were then re-suspended in 100 mM NaCl, 20 mM Tris HCl, pH 7.4 buffer containing 1% v/v protease inhibitors (Calbiochem) and re-homogenized on ice. The homogenized membranes were then processed through a syringe equipped with a 26 gauge needle. Protein concentrations were determined by Bradford Assay and the membranes were stored at −80° C.
Saturation experiments. A competitive NaV1.7 inhibitor having a methyl group was tritiated. Three tritiums were incorporated in place of methyl hydrogens to generate [^3H]compound. Binding of this radioligand was preformed in 5 mL borosilicate glass test tubes at room temperature. Binding was initiated by adding membranes to increasing concentrations of [^3H]compound in 100 mM NaCl, 20 mM Tris HCl, pH 7.4 buffer containing 0.01% w/v bovine serum albumin (BSA) for 18 h. Non-specific binding was determined in the presence of 1 μM unlabelled compound. After 18 h, the reactants were filtered through GF/C glass fiber filters presoaked in 0.5% w/v polyethylene imine. Filters were washed with 15 mL ice cold 100 mM NaCl, 20 mM Tris HCl, pH 7.4 buffer containing 0.25% BSA to separate bound from free ligand. [^3H]compound bound to filters was quantified by liquid scintillation counting.
Binding reactions were performed in 96-well polypropylene plates at room temperature for 18 h. In 360 μL, membranes were incubated with 100 pM [^3H]compound and increasing concentrations of Test Compound. Non-specific binding was defined in the presence of 1 μM unlabelled compound. Reactions were transferred and filtered through 96-well glass fiber/C filter plates presoaked with 0.5% polyethylene imine. The filtered reactions were washed 5 times with 200 μL ice cold buffer containing 0.25% BSA. Bound radioactivity was determined by liquid scintillation counting.
Data Analysis: For saturation experiments, non-specific binding was subtracted from total binding to provide specific binding and these values were recalculated in terms of pmol ligand bound per mg protein. Saturation curves were constructed and dissociation constants were calculated using the single site ligand binding model: Beq=(Bmax*X)/(X+Kd), where Beq is the amount of ligand bound at equilibrium, Bmax is the maximum receptor density, Kd is the dissociation constant for the ligand, and X is the free ligand concentration. For competition studies percent inhibition was determined and IC50 values were calculated using a 4 parameter logistic model (% inhibition=(A+((B−A)/(1+((x/C)^D)))) using XLfit, where A and B are the maximal and minimum inhibition respectively, C is the IC50 concentration and D is the (Hill) slope.

T1 sequence (Q14524 whole entry): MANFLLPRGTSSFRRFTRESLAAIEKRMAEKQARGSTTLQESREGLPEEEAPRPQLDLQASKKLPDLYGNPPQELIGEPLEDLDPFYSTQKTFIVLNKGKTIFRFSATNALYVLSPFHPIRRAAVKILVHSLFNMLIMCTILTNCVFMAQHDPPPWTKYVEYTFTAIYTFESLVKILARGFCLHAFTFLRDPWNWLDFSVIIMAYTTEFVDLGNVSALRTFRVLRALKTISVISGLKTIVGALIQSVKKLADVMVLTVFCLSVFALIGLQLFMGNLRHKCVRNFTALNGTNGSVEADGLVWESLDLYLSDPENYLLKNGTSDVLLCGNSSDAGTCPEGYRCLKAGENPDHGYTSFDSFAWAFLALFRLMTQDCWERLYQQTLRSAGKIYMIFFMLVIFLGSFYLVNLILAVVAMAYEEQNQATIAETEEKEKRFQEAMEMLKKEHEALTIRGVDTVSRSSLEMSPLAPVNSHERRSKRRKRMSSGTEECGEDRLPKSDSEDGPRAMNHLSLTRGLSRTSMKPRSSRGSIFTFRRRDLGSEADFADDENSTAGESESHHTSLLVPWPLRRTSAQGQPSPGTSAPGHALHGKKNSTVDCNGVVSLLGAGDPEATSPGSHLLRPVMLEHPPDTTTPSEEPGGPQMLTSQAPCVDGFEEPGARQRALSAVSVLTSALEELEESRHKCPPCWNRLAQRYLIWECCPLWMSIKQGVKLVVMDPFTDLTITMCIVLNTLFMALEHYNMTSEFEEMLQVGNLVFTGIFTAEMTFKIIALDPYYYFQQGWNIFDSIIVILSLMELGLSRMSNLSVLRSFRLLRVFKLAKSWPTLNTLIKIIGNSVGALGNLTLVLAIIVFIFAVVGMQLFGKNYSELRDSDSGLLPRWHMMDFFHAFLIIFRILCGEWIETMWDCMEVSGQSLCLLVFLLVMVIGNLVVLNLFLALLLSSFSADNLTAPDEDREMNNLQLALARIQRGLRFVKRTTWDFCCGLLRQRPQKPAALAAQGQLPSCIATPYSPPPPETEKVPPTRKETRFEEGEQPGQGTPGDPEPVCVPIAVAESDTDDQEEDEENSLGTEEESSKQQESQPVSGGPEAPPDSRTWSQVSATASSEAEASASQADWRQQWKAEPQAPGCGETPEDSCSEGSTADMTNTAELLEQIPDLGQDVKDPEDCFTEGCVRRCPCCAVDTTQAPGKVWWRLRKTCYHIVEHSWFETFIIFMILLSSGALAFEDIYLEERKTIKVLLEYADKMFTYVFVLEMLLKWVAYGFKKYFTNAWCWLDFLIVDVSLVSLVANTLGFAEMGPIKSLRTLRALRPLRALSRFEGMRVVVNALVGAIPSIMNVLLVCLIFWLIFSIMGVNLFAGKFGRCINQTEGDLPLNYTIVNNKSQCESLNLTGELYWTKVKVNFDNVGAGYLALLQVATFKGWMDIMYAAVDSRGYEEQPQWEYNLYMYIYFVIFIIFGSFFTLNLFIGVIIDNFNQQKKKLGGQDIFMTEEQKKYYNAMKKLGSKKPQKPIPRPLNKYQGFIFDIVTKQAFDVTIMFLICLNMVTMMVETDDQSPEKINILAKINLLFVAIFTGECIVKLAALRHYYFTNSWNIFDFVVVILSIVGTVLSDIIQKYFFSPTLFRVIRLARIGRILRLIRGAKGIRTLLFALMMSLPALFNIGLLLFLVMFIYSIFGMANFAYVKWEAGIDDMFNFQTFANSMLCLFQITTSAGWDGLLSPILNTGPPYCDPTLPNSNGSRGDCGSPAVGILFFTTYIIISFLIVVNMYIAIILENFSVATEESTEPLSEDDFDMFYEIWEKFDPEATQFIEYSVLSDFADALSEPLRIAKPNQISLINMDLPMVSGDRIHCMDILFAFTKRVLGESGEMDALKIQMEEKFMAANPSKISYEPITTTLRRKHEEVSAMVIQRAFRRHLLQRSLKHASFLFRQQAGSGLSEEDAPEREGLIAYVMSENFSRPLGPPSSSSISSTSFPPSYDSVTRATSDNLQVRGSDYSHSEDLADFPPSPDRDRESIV
T3 sequence (Q15858 1-1977 isoform Q15858-3): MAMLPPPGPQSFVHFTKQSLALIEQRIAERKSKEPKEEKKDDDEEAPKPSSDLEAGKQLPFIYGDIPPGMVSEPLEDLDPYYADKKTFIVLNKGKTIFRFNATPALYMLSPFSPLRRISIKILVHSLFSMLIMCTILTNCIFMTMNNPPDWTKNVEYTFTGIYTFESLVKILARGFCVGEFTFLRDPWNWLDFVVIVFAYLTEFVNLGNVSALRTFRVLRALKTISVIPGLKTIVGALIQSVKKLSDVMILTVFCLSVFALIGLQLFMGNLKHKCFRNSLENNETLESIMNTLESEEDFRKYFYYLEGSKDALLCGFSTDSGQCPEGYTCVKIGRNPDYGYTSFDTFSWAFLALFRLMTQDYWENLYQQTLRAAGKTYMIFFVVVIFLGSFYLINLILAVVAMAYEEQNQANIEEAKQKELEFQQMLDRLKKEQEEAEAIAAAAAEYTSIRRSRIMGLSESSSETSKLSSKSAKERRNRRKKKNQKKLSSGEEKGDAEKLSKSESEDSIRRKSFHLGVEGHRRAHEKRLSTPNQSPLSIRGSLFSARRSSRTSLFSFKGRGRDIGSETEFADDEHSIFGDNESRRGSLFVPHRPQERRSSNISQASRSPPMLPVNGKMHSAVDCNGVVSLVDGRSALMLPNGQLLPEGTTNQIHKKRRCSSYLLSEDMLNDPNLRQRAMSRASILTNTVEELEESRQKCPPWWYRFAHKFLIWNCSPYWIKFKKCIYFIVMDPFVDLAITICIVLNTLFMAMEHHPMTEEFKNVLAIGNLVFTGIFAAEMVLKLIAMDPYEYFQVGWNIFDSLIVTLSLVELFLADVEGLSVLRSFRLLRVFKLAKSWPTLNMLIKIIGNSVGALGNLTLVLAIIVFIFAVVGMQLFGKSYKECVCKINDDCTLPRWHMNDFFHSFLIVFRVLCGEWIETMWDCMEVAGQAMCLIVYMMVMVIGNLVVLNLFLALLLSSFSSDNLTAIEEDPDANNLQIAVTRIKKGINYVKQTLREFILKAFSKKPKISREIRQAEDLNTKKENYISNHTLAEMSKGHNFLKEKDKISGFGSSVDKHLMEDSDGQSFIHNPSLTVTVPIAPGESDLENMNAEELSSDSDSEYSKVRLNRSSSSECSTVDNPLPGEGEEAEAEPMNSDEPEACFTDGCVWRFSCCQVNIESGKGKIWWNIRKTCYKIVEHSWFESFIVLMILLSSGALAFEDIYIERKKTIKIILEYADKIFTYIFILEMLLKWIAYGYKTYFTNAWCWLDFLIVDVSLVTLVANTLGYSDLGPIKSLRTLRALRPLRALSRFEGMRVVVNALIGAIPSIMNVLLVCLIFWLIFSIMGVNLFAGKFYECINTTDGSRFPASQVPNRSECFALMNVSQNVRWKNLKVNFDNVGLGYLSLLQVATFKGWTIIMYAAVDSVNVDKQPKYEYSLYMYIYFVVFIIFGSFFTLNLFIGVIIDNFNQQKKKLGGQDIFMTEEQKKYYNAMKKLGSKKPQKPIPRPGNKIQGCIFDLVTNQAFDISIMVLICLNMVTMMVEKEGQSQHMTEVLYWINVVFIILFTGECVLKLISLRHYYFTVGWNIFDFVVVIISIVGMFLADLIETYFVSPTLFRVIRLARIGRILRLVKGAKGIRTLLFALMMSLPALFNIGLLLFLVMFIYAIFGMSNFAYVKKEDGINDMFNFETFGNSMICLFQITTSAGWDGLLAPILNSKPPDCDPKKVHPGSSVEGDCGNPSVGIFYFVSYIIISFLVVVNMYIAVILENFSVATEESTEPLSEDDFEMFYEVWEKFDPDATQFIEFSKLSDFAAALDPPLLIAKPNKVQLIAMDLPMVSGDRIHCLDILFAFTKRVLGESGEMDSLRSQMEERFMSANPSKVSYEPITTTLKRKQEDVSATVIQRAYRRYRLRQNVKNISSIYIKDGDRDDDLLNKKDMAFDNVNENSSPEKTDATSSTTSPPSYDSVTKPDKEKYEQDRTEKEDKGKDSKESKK
T3 sequence (Q07699 19-218 partner): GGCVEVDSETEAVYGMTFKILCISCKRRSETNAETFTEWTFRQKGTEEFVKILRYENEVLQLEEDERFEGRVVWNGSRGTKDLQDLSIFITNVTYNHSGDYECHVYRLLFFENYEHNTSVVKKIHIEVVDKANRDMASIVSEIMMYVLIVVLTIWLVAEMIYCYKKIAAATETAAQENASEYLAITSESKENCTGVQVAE
T2 sequence (Q15858 1-1977 isoform Q15858-3): as the sequence (Q15858 1-1977 isoform Q15858-3) above
T2 sequence (Q07699 19-218 partner): as the sequence (Q07699 19-218 partner) above

SMILES | pIC50 (NaV1.5) | pIC50 (NaV1.7) | pIC50 (hNav1.7) | pIC50 (NaV1.5; human, pH 7.4)
Cc1nn(C2CCN(Cc3cc(C(F)(F)F)cc(Cl)c3F)CC2)c2cc(F)c(C(=O)NS(C)(=O)=O)cc12 [Example 1, 1-(1-(3-chloro-2-fluoro-5-(trifluoromethyl)benzyl)piperidin-4-yl)-6-fluoro-3-methyl-N-(methylsulfonyl)-1H-indazole-5-carboxamide 2,2,2-trifluoroacetate] | 4.66 | 6.17 | 7.47 | –
Cc1nn(C2CCN(Cc3cc(C(F)(F)F)cc(Cl)c3F)CC2)c2cc(F)c(C(=O)NS(=O)(=O)C3CC3)cc12 [Example 2, 1-(1-(3-chloro-2-fluoro-5-(trifluoromethyl)benzyl)piperidin-4-yl)-N-(cyclopropylsulfonyl)-6-fluoro-3-methyl-1H-indazole-5-carboxamide 2,2,2-trifluoroacetate] | 5.31 | 7.07 | 7.89 | –
Cc1nn(C2CCN(Cc3cc(C(F)(F)F)cc(Cl)c3F)CC2)c2cc(F)c(C(=O)NS(=O)(=O)N3CCC3)cc12 [Example 3, N-(azetidin-1-ylsulfonyl)-1-(1-(3-chloro-2-fluoro-5-(trifluoromethyl)benzyl)piperidin-4-yl)-6-fluoro-3-methyl-1H-indazole-5-carboxamide 2,2,2-trifluoroacetate] | 5.13 | 6.60 | 7.48 | –
Cc1nn(-c2ccc3c(c2)CCCC3)c2cc(F)c(C(=O)NS(=O)(=O)N3CCC3)cc12 [Example 25, N-(azetidin-1-ylsulfonyl)-6-fluoro-3-methyl-1-(5,6,7,8-tetrahydronaphthalen-2-yl)-1H-indazole-5-carboxamide] | – | 7.36 | 6.59 | –
Cc1nn(-c2ccc3c(c2)CCCC3)c2cc(F)c(C(=O)NS(C)(=O)=O)cc12 [Example 26, 6-fluoro-3-methyl-N-(methylsulfonyl)-1-(5,6,7,8-tetrahydronaphthalen-2-yl)-1H-indazole-5-carboxamide] | – | 6.80 | 7.00 | –
Cc1nn(C2CCC(C(C)(C)C)CC2)c2cc(F)c(C(=O)NS(=O)(=O)N3CCC3)cc12 (stereo not shown) [Example 27, N-(azetidin-1-ylsulfonyl)-1-(4-(tert-butyl)cyclohexyl)-6-fluoro-3-methyl-1H-indazole-5-carboxamide] | – | 6.85 | 7.64 | –
Cc1nn(C2CCC(C(C)(C)C)CC2)c2cc(F)c(C(=O)NS(C)(=O)=O)cc12 (stereo not shown) [Example 28, 1-(4-(tert-butyl)cyclohexyl)-6-fluoro-3-methyl-N-(methylsulfonyl)-1H-indazole-5-carboxamide] | – | 6.49 | 7.33 | –
Cc1nn(C2CCC(C)CC2)c2cc(F)c(C(=O)NS(=O)(=O)N3CCC3)cc12 (stereo not shown) [Example 29, N-(azetidin-1-ylsulfonyl)-6-fluoro-3-methyl-1-(4-methylcyclohexyl)-1H-indazole-5-carboxamide] | – | 6.00 | 6.46 | –
Cc1nn(C2CCC(C(C)C)CC2)c2cc(F)c(C(=O)NS(=O)(=O)N3CCC3)cc12 (stereo not shown) [Example 30, N-(azetidin-1-ylsulfonyl)-6-fluoro-1-(4-isopropylcyclohexyl)-3-methyl-1H-indazole-5-carboxamide] | – | 7.41 | 7.60 | –
Cc1nn(C2CCC(C)CC2)c2cc(F)c(C(=O)NS(C)(=O)=O)cc12 (stereo not shown) [Example 31, 6-fluoro-3-methyl-1-(4-methylcyclohexyl)-N-(methylsulfonyl)-1H-indazole-5-carboxamide] | – | 5.70 | 6.47 | –
Cc1nn(C2CCOCC2)c2cc(F)c(C(=O)NS(=O)(=O)N3CCC3)cc12 [Example 32, N-(azetidin-1-ylsulfonyl)-6-fluoro-3-methyl-1-(tetrahydro-2H-pyran-4-yl)-1H-indazole-5-carboxamide] | – | – | – | ≤ 4.52
Cc1nn(C2CCOCC2)c2cc(F)c(C(=O)NS(C)(=O)=O)cc12 [Example 34, 6-fluoro-3-methyl-N-(methylsulfonyl)-1-(tetrahydro-2H-pyran-4-yl)-1H-indazole-5-carboxamide] | – | – | – | ≤ 4.52
